Our source for the remaining activity values is paper PMC7827406, “Structure–Activity Relationship (SAR) Study of Spautin-1 to Entail the Discovery of Novel NEK4 Inhibitors” (International Journal of Molecular Sciences, 2021).

Like-named read-outs stand apart in the source and are kept apart here.

Holding throughout (experiment): biochemical
Design in all cases: Eurofins KinaseProfiler full panel at Km ATP, residual kinase activity (%) relative to DMSO

For one assay, the target named is Ret(V804M)(h) (Homo sapiens, UniProt P07949, V804M). The gist of the method: (§1)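 Two 10 µM single-concentration screens were run: a competition-binding screen, in which DNA-tagged kinase bound to immobilized ligands was quantified by qPCR, and a radiometric activity panel at Km ATP. Each is expressed as residual kinase activity (%).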
In another assay the target is SBK1(h) (Homo sapiens, UniProt Q52WX2). The gist of the method:
as §1

The next assay has as its target WNK3(h) (Homo sapiens, UniProt Q9BYP7). In short, it runs like this:
as §1

For a further assay, the target named is T1, NEK1(h) (Homo sapiens, UniProt Q96PY6).
T1 sequence (Q96PY6 1-1258): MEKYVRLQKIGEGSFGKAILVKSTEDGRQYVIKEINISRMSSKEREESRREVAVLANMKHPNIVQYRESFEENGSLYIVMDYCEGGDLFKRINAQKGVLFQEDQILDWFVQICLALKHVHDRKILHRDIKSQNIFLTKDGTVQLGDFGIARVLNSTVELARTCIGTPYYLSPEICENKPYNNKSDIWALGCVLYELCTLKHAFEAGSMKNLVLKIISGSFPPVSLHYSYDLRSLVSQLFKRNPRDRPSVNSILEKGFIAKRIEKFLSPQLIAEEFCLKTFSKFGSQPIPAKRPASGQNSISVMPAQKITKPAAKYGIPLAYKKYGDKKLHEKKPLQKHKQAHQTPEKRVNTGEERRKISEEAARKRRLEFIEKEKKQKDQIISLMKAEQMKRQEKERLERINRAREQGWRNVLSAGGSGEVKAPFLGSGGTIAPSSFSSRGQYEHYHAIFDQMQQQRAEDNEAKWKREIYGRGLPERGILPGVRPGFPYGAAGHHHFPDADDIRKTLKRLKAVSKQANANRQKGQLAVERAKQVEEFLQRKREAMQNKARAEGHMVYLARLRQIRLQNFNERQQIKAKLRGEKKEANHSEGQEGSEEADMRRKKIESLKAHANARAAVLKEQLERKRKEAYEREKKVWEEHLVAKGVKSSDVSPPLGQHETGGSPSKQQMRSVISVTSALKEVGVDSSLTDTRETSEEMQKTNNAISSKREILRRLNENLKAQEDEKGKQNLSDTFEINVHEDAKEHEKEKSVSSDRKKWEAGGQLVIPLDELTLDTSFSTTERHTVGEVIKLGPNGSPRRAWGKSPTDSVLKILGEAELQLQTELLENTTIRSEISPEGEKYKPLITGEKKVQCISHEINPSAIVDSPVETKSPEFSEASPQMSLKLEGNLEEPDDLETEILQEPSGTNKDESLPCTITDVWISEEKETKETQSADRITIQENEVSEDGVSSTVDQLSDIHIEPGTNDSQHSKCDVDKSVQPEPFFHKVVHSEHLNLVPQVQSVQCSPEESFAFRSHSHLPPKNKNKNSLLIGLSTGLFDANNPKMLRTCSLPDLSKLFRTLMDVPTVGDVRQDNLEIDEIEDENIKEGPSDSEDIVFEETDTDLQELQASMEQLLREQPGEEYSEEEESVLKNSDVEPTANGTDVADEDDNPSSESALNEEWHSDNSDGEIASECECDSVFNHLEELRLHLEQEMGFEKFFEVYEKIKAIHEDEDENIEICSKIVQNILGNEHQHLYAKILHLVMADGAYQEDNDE
In short, it runs like this: as §1

The next assay concerns the target T2, CK1γ2(h) (Homo sapiens, UniProt P78368).
T2 construct: gene CSNK1G2
In short, it runs like this: as §1

A further assay concerns the target GRK6(h) (Homo sapiens, UniProt P43250). The gist of the method:
as §1

A further assay has as its target SRMS(h) (Homo sapiens, UniProt Q9H3Y6). The gist of the method:
as §1

The next assay concerns the target CaMKK1(h) (Homo sapiens, UniProt Q8N5S9). In short, it runs like this: as §1
For the next assay, the target named is T3, PDHK2(h) (Homo sapiens, UniProt Q15119).
T3 construct: gene PDK2
In short, it runs like this:
as §1

The target of a further assay is STK32C(h) (Homo sapiens, UniProt Q86UX6). The gist of the method:
as §1

Where [1] appears, read: read-out: Residual activity (%) 5at.
The mark [2] stands for this setting: read-out: Residual activity (%) 5ay.
[3] abbreviates: read-out: Residual activity (%) 5as.
The mark [4] stands for this setting: read-out: Residual activity (%) Spautin-1 5aa.

Chain of CaMKK1(h) (Q8N5S9 whole entry): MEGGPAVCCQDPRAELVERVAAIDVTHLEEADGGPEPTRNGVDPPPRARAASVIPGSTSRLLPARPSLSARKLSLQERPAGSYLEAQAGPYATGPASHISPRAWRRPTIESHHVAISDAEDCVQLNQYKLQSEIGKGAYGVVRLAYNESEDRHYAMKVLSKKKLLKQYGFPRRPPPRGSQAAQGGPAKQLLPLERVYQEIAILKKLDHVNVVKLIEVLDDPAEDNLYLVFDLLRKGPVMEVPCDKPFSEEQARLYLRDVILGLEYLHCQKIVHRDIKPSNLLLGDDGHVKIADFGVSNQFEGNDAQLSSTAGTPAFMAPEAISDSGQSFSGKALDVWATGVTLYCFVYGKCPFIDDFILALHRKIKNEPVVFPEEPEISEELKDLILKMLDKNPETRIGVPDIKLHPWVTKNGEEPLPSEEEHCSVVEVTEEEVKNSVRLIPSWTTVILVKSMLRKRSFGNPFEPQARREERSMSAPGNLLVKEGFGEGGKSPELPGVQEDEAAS
T2 sequence (P78368 whole entry): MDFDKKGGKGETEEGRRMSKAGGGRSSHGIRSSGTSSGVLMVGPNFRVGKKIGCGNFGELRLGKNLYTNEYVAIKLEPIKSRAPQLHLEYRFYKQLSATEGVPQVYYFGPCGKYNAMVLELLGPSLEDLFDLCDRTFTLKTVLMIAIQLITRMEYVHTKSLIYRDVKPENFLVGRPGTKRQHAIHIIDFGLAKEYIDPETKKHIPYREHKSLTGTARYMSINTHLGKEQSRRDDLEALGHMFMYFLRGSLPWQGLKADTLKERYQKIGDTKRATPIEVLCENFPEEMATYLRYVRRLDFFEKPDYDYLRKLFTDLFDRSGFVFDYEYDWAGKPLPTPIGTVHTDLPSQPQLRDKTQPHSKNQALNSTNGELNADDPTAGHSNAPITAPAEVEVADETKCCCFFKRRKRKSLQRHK
Chain of SBK1(h) (Q52WX2 whole entry): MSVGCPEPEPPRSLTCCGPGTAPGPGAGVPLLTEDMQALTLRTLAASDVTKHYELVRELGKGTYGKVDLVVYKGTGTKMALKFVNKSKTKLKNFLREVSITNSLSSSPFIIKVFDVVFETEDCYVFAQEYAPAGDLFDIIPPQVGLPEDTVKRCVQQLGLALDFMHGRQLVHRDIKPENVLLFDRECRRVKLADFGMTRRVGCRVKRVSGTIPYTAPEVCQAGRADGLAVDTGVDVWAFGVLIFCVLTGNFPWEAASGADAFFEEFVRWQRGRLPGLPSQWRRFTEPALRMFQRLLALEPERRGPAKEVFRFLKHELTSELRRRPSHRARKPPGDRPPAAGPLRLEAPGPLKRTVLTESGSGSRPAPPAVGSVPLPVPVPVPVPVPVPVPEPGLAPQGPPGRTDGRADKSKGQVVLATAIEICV
Chain of STK32C(h) (Q86UX6 whole entry): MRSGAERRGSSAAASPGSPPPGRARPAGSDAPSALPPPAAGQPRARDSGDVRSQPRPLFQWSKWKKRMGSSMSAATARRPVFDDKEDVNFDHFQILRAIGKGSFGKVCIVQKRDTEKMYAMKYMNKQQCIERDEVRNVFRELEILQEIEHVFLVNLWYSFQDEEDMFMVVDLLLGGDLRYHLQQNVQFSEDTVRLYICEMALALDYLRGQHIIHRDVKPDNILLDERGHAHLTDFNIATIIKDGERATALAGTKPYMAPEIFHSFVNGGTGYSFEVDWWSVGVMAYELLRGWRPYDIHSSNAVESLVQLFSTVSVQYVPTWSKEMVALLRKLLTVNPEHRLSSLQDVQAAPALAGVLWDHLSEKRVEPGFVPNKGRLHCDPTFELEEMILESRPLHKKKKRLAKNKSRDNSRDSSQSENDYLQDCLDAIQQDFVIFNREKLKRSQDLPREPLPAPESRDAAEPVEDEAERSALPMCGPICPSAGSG
Chain of Ret(V804M)(h) (P07949 whole entry V804M): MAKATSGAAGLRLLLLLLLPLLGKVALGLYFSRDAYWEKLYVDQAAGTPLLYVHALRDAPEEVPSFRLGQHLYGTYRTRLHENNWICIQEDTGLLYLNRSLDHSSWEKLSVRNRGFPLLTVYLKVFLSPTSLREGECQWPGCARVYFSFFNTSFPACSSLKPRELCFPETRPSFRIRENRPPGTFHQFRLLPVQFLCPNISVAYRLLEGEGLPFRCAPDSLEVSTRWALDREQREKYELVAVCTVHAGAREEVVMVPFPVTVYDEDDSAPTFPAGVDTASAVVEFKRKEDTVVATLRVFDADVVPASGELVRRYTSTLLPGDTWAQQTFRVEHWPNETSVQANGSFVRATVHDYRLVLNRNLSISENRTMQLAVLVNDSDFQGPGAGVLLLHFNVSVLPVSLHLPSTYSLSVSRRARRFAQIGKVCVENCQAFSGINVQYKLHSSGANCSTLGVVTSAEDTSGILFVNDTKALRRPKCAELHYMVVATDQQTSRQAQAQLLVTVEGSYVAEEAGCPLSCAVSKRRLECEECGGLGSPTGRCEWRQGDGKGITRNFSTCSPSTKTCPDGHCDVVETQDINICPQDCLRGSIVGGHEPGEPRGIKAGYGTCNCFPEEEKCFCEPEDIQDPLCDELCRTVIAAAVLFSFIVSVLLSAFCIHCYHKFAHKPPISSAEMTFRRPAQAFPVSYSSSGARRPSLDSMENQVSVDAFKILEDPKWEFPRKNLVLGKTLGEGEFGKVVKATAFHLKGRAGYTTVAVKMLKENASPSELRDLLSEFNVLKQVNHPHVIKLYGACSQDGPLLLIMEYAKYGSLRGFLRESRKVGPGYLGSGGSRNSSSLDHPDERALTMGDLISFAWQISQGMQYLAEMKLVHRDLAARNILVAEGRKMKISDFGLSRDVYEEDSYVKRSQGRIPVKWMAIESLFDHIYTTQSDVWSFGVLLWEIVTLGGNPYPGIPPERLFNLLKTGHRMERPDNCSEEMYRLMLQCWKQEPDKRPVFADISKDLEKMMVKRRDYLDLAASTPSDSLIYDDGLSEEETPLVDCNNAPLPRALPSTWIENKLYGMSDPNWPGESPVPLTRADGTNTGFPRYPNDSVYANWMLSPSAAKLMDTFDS
Chain of WNK3(h) (Q9BYP7 whole entry): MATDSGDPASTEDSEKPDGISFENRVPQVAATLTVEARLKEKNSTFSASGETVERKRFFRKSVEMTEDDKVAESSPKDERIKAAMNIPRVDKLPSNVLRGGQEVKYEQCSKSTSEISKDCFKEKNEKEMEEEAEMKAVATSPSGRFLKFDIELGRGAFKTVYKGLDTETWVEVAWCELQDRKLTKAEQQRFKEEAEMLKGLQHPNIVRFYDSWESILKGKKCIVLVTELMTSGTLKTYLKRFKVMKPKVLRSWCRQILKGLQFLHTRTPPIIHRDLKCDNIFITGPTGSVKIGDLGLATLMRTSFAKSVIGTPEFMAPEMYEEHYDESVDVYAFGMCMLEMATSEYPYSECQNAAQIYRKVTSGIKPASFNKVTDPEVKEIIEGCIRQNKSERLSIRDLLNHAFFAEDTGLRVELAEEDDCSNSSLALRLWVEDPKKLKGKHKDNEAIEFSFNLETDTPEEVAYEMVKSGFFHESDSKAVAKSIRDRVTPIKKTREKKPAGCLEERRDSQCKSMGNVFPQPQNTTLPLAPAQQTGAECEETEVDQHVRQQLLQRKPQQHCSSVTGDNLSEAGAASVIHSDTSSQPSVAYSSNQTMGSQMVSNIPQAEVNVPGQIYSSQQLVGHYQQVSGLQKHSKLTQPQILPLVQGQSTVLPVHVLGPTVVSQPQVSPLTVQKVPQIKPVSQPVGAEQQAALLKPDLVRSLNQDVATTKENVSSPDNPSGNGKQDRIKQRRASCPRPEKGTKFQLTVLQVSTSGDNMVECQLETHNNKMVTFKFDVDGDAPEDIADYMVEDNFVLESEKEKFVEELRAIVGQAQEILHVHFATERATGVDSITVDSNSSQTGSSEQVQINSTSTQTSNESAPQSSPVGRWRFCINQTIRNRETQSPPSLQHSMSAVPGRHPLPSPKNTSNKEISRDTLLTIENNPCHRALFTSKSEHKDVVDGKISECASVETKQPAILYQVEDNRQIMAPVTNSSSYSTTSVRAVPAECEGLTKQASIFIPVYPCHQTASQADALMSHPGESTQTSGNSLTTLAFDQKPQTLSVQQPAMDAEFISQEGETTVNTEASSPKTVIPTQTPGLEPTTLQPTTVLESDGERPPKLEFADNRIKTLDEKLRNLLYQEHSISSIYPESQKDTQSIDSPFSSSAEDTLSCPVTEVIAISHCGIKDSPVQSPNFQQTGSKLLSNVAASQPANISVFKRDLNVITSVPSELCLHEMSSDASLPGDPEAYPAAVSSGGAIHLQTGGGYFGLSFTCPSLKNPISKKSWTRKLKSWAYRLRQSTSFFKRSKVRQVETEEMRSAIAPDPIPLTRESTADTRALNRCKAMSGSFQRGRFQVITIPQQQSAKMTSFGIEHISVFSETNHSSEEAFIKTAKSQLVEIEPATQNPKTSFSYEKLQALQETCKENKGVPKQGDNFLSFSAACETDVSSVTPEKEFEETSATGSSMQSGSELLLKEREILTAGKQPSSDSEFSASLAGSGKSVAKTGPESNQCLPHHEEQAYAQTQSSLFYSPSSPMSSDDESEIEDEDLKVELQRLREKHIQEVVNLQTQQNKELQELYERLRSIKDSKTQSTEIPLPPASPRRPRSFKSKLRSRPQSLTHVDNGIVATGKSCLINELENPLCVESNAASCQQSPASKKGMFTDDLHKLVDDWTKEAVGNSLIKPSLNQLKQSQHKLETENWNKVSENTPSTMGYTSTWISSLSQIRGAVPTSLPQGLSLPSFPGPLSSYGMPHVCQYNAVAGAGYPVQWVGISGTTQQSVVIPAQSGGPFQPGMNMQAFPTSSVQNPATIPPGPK

As to `Fc1ccc2ncnc(NCCc3ccc(Cl)cc3)c2c1` [5at, N-[2-(4-Chlorophenyl)Ethyl]-6-Fluoro-4-Quinazolinamine], the remaining activity at 10 µM was 73% on Ret(V804M)(h) (setting [1]); 103% on SBK1(h) (setting [1]); 86% at WNK3(h) (setting [1]); 70% on NEK1(h) (setting [1]); 76% on CK1γ2(h) (setting [1]); 99% on GRK6(h) (setting [1]). For the same molecule, the remaining activity at 10 µM at SRMS(h) (setting [1]) came out at 71%; at CaMKK1(h) (setting [1]), 91%; at PDHK2(h) (setting [1]), 87%; on STK32C(h) (setting [1]) it was 106%.
On to `COc1ccc2ncnc(Nc3cccc(F)c3)c2c1` [5ay, N-(3-Fluorophenyl)-6-Methoxy-4-Quinazolinamine], for which the remaining activity at 10 µM is 102% at Ret(V804M)(h) (setting [2]); 83% at SBK1(h) (setting [2]); 104% on WNK3(h) (setting [2]); 60% on NEK1(h) (setting [2]); 62% at CK1γ2(h) (setting [2]); 110% on GRK6(h) (setting [2]). In addition, the remaining activity at 10 µM at SRMS(h) (setting [2]) amounted to 78%; on CaMKK1(h) (setting [2]) it was 90%; at PDHK2(h) (setting [2]) it was 94%; on STK32C(h) (setting [2]), 102%.
On to `Fc1ccc(CCNc2ncnc3ccc(F)cc23)cc1` [5as, 6-Fluoro-N-[2-(4-Fluorophenyl)Ethyl]-4-Quinazolinamine], for which the remaining activity at 10 µM at Ret(V804M)(h) (setting [3]) was determined as 85%; on SBK1(h) (setting [3]), 95%; on WNK3(h) (setting [3]) it was 98%; on NEK1(h) (setting [3]) it was 97%; at CK1γ2(h) (setting [3]), 72%; at GRK6(h) (setting [3]), 104%. Also, the remaining activity at 10 µM came out at 84% at SRMS(h) (setting [3]), 99% on CaMKK1(h) (setting [3]), 93% at PDHK2(h) (setting [3]) and 95% on STK32C(h) (setting [3]).
Take `Fc1ccc(CNc2ncnc3ccc(F)cc23)cc1` [5aa, 6-Fluoro-N-(4-fluorobenzyl)-4-Quinazolinamine]: the remaining activity at 10 µM at Ret(V804M)(h) (setting [4]) stood at 99%; on SBK1(h) (setting [4]), 106%; on WNK3(h) (setting [4]) it was 90%; on NEK1(h) (setting [4]), 81%; on CK1γ2(h) (setting [4]), 84%; on GRK6(h) (setting [4]), 100%. Besides, the remaining activity at 10 µM turned out to be 86% on SRMS(h) (setting [4]), 96% at CaMKK1(h) (setting [4]), 103% on PDHK2(h) (setting [4]) and 106% on STK32C(h) (setting [4]).
